Results published in US10940139B2, “Compounds that interact with the Ras superfamily for the treatment of cancers, inflammatory diseases, rasopathies, and fibrotic disease” (Shy Therapeutics LLC, priority 2017, dated 2021).
Where two headings read alike, the source gives them in different places.

Assays:
Test in all cases: Ras GTP binding domain inhibition assay (labeled GTP)
KRas G12D mutant protein = KRas G12D mutant protein (Homo sapiens (Human), UniProt P01116, G12D); conditions: 20 μM compound
KRas G12D mutant protein, sequence (P01116-2 other isoform, or with tags, fused parts or gaps G12D): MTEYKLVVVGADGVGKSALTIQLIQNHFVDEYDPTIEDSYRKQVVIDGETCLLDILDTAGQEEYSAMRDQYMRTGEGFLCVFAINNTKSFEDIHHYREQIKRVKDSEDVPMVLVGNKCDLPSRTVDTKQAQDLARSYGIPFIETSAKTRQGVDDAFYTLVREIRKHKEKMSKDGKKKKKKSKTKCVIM

[1] = target: KRas G12D/Q61H double mutant (Homo sapiens (Human), UniProt P01116, G12D/Q61H); conditions: for IC50: serial dilution, read-out: KRas G12D Q61H (classes E-H, IC50)
KRas G12D/Q61H double mutant, sequence (P01116-2 other isoform, or with tags, fused parts or gaps G12D/Q61H): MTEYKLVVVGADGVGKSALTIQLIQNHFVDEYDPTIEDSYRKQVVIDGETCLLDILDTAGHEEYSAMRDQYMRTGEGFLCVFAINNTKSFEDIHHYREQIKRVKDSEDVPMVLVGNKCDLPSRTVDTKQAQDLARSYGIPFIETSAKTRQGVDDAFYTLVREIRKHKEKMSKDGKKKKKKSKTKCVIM
How it was run: (§1)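 Ni-plate capture of His-KRas (3-10 μg/ml, o/n, 4° C); Tris pH 7.5/MgCl2/DTT buffer, 1% DMSO. Cpd 20 μM or titration, 3 h RT. Cy3/Cy5-GTP 45 min RT, wash, fluorescence of bound GTP.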

KRas G12C mutant = KRas G12C mutant (Homo sapiens (Human), UniProt P01116, G12C); conditions: 20 μM compound
KRas G12C mutant, sequence (P01116-2 other isoform, or with tags, fused parts or gaps G12C): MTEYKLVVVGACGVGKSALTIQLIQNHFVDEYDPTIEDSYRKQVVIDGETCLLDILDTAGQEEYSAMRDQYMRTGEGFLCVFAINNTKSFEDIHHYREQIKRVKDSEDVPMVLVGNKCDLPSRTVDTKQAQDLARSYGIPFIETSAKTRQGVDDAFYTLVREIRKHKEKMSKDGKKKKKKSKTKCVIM
How it was run: as §1

KRas wild type = KRas wild type (Homo sapiens (Human), UniProt P01116); conditions: 20 μM compound
KRas wild type, sequence (P01116-2 other isoform, or with tags, fused parts or gaps): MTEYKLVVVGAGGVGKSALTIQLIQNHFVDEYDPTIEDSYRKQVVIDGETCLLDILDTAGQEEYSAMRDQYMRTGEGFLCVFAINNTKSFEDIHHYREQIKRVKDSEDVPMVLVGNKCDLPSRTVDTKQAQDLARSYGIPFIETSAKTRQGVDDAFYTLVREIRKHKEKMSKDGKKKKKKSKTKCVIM
How it was run: as §1

[2] = target: KRas G12C/Q61H double mutant (Homo sapiens (Human), UniProt P01116, G12C/Q61H); conditions: 20 μM compound
KRas G12C/Q61H double mutant, sequence (P01116-2 other isoform, or with tags, fused parts or gaps G12C/Q61H): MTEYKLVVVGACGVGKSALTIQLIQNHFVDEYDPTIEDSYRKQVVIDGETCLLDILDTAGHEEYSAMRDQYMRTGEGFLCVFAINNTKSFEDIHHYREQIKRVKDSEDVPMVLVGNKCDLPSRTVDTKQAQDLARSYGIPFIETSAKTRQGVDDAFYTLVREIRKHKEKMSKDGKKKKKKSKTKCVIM
How it was run: as §1

KRas Q61H mutant = KRas Q61H mutant (Homo sapiens (Human), UniProt P01116, Q61H); conditions: 20 μM compound
KRas Q61H mutant, sequence (P01116-2 other isoform, or with tags, fused parts or gaps Q61H): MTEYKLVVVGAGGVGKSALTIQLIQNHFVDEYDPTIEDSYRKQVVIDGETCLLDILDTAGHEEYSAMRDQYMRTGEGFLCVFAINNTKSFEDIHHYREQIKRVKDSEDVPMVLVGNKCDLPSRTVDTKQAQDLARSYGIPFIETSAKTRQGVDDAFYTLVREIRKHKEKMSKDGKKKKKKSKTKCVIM
How it was run: as §1

[3] = read-out: % Inhibition at 20 μM KRas G12D
[4] = 20 μM compound, read-out: % Inhibition at 20 μM KRas G12D Q61H
[5] = read-out: % Inhibition at 20 μM KRas G12C
[6] = read-out: % Inhibition at 20 μM KRas wild type
[7] = read-out: % Inhibition at 20 μM KRas G12C Q61H
[8] = read-out: % Inhibition at 20 μM KRas Q61H
[9] = KRas G12D, read-out: % Inhibition at 20 μM of K-Ras mutant and wild-type protein, KRas G12D
[10] = 20 μM compound, KRas G12D/Q61H double mutant, read-out: % Inhibition at 20 μM of K-Ras mutant and wild-type protein, KRas G12D Q61H
[11] = KRas G12C, read-out: % Inhibition at 20 μM of K-Ras mutant and wild-type protein, KRas G12C
[12] = KRas wild type, read-out: % Inhibition at 20 μM of K-Ras mutant and wild-type protein, KRas wild type
[13] = KRas G12C/Q61H double mutant, read-out: % Inhibition at 20 μM of K-Ras mutant and wild-type protein, KRas G12C Q61H
[14] = KRas Q61H, read-out: % Inhibition at 20 μM of K-Ras mutant and wild-type protein, KRas Q61H

Compound | inhibition at 20 µM (KRas G12D mutant protein; [9]) [%] | inhibition at 20 µM [1, 10] [%] | inhibition at 20 µM (KRas G12C mutant; [11]) [%] | inhibition at 20 µM (KRas wild type; [12]) [%] | inhibition at 20 µM [2, 13] [%] | inhibition at 20 µM (KRas Q61H mutant; [14]) [%] | further results
CN1CCN(c2nc(-c3ccccn3)nc3scc(C(=O)NCCc4cnc(O)nc4)c23)CC1 [drawing 2899] | – | – | – | – | – | – | inhibition at 20 µM (KRas G12D mutant protein; [3]): 51 to 75%; inhibition at 20 µM [1, 4]: 25 to 50%; IC50 [1]: > 30 µM; inhibition at 20 µM (KRas G12C mutant; [5]): 1 to 25%; inhibition at 20 µM (KRas wild type; [6]): 1 to 25%; inhibition at 20 µM [2, 7]: 51 to 75%; inhibition at 20 µM (KRas Q61H mutant; [8]): 51 to 75%
Oc1nc(-c2ccccn2)nc2c(-c3cc(F)cc(F)c3)csc12 [drawing 2900] | – | – | – | – | – | – | inhibition at 20 µM (KRas G12D mutant protein; [3]): 51 to 75%; inhibition at 20 µM [1, 4]: 51 to 75%; IC50 [1]: > 30 µM; inhibition at 20 µM (KRas G12C mutant; [5]): 51 to 75%; inhibition at 20 µM (KRas wild type; [6]): 25 to 50%; inhibition at 20 µM [2, 7]: 51 to 75%; inhibition at 20 µM (KRas Q61H mutant; [8]): 51 to 75%
CN(C)Cc1ccc(F)c(-c2csc3c(O)nc(-c4ccccn4)nc23)c1 [drawing 2901] | – | – | – | – | – | – | inhibition at 20 µM (KRas G12D mutant protein; [3]): 51 to 75%; inhibition at 20 µM [1, 4]: 25 to 50%; IC50 [1]: 11 to 30 µM; inhibition at 20 µM (KRas G12C mutant; [5]): 25 to 50%; inhibition at 20 µM (KRas wild type; [6]): 51 to 75%; inhibition at 20 µM [2, 7]: 51 to 75%; inhibition at 20 µM (KRas Q61H mutant; [8]): 51 to 75%
Oc1nc(-c2ccccn2)nc2c(-c3ccc4c(c3)CCCO4)csc12 [drawing 2902] | – | – | – | – | – | – | inhibition at 20 µM (KRas G12D mutant protein; [3]): 51 to 75%; inhibition at 20 µM [1, 4]: 25 to 50%; inhibition at 20 µM (KRas G12C mutant; [5]): 25 to 50%; inhibition at 20 µM (KRas wild type; [6]): 25 to 50%; inhibition at 20 µM [2, 7]: 25 to 50%; inhibition at 20 µM (KRas Q61H mutant; [8]): 51 to 75%
Cc1sc2c(O)nc(-c3ccccn3)nc2c1-c1ccccc1 [drawing 2905] | – | – | – | – | – | – | inhibition at 20 µM (KRas G12D mutant protein; [3]): 51 to 75%; inhibition at 20 µM [1, 4]: 51 to 75%; inhibition at 20 µM (KRas G12C mutant; [5]): 25 to 50%; inhibition at 20 µM (KRas wild type; [6]): 1 to 25%; inhibition at 20 µM [2, 7]: 25 to 50%; inhibition at 20 µM (KRas Q61H mutant; [8]): 25 to 50%
Cc1sc2c(O)nc(-c3ccccn3)nc2c1-c1cccnc1 [drawing 3468] | 51 to 75 | 25 to 50 | 25 to 50 | 25 to 50 | 51 to 75 | 51 to 75 | –
COc1cnc(-c2ccccn2)nc1O [drawing 3469] | 51 to 75 | 51 to 75 | 76 to 100 | 25 to 50 | 76 to 100 | 51 to 75 | –
COc1nc(-c2ccccn2)nc2c(C3CCCC3)csc12 [drawing 3470] | 25 to 50 | 51 to 75 | 25 to 50 | 25 to 50 | 51 to 75 | 76 to 100 | –
CCC(C)c1csc2c(OC)nc(-c3ccccn3)nc12 (stereo not drawn) [drawing 3471] | 25 to 50 | 51 to 75 | 25 to 50 | 25 to 50 | 51 to 75 | 51 to 75 | –
Cc1c(C(=O)O)sc2c(O)nc(-c3ccccn3)nc12 [drawing 3475] | 25 to 50 | 51 to 75 | 1 to 25 | 1 to 25 | 51 to 75 | 51 to 75 | –
Oc1nc(-c2ccccn2)nc2c(C3CCC3)csc12 [drawing 3478] | 51 to 75 | 51 to 75 | 25 to 50 | 25 to 50 | 51 to 75 | 51 to 75 | –
COc1nc(-c2ccccn2)nc2c(C3CCC3)csc12 [drawing 3480] | 1 to 25 | 51 to 75 | 25 to 50 | 1 to 25 | 51 to 75 | 76 to 100 | –
CC(C)Oc1cnc(-c2ccccn2)nc1O [drawing 3481] | 51 to 75 | 51 to 75 | 51 to 75 | 25 to 50 | 76 to 100 | 51 to 75 | –
CC(C)c1csc2c(O)nc(-c3ccccn3)nc12 [drawing 3487] | 51 to 75 | 51 to 75 | 51 to 75 | 51 to 75 | 51 to 75 | 51 to 75 | –
CN(C)CCOc1cccc(-c2csc3c(O)nc(-c4ccccn4)nc23)c1 [drawing 3492] | 76 to 100 | 76 to 100 | 51 to 75 | 51 to 75 | 76 to 100 | 76 to 100 | –
COc1ccc(CCC(=O)Nc2nc(-c3ccccn3)nc3sccc23)cn1 [drawing 3493] | 51 to 75 | 51 to 75 | 25 to 50 | 25 to 50 | 51 to 75 | 76 to 100 | –
CC(C)Cc1csc2c(O)nc(-c3ccccn3)nc12 [drawing 3494] | 51 to 75 | 51 to 75 | 25 to 50 | 25 to 50 | 51 to 75 | 76 to 100 | –
Oc1nc(-c2ccccn2)nc2c(C3CCCC3)csc12 [drawing 3495] | 51 to 75 | 51 to 75 | 25 to 50 | 25 to 50 | 51 to 75 | 51 to 75 | –
COc1cnc(-c2cn(C)cn2)nc1O [drawing 3496] | 51 to 75 | 51 to 75 | 51 to 75 | 25 to 50 | 51 to 75 | 76 to 100 | –
Cc1sc2c(O)nc(-c3ccccn3)nc2c1-c1ccncc1 [drawing 3497] | 51 to 75 | 51 to 75 | 25 to 50 | 1 to 25 | 25 to 50 | 51 to 75 | –
Oc1cccc(-c2csc3c(O)nc(-c4ccccn4)nc23)n1 [drawing 3498] | 25 to 50 | 51 to 75 | 25 to 50 | 51 to 75 | 51 to 75 | 76 to 100 | –
Oc1nc(-c2ccccn2)nc2c(-c3cc(CN4CCCC4)ccc3F)csc12 [drawing 3502] | 76 to 100 | 51 to 75 | 51 to 75 | 25 to 50 | 51 to 75 | 76 to 100 | –
Cc1nn(C(C)C)cc1-c1csc2c(O)nc(-c3ccccn3)nc12 [drawing 3506] | 51 to 75 | 51 to 75 | 25 to 50 | 25 to 50 | 51 to 75 | 51 to 75 | –
Cc1sc2c(O)nc(-c3ccccn3)nc2c1C(=O)N1CCN(c2ccccc2)CC1C (stereo not drawn) [drawing 3509] | 51 to 75 | 51 to 75 | 51 to 75 | 25 to 50 | 51 to 75 | 51 to 75 | –
Cc1sc2c(O)nc(-c3ccccn3)nc2c1C(=O)N1CCN(Cc2cccc(O)c2)CC1 [drawing 3510] | 25 to 50 | 51 to 75 | 1 to 25 | 1 to 25 | 51 to 75 | 51 to 75 | –
COc1cnc(-c2cn(C)cn2)nc1O [drawing 3512] | – | – | – | – | – | – | % Inhibition at 20 μM of K-Ras mutant and wild-type protein, KRas G12D (KRas G12D mutant protein; KRas G12D): C (51-75% inhibition); % Inhibition at 20 μM of K-Ras mutant and wild-type protein, KRas G12D Q61H ([1]; 20 μM compound, KRas G12D/Q61H double mutant): C (51-75% inhibition); % Inhibition at 20 μM of K-Ras mutant and wild-type protein, KRas G12C (KRas G12C mutant; KRas G12C): C (51-75% inhibition); % Inhibition at 20 μM of K-Ras mutant and wild-type protein, KRas wild type (KRas wild type; KRas wild type): B (25-50% inhibition); % Inhibition at 20 μM of K-Ras mutant and wild-type protein, KRas G12C Q61H ([2]; KRas G12C/Q61H double mutant): C (51-75% inhibition); % Inhibition at 20 μM of K-Ras mutant and wild-type protein, KRas Q61H (KRas Q61H mutant; KRas Q61H): D (76-100% inhibition)
COc1cnc(-c2nccn2C)nc1O [drawing 3513] | 76 to 100 | 76 to 100 | 51 to 75 | 51 to 75 | 76 to 100 | 76 to 100 | –
Nc1cccc(-c2csc3c(O)nc(-c4ccccn4)nc23)n1 [drawing 3514] | 51 to 75 | 51 to 75 | 25 to 50 | 51 to 75 | 51 to 75 | 76 to 100 | –
Cc1sc2c(O)nc(-c3ccccn3)nc2c1-c1ccccc1Cl [drawing 3515] | 51 to 75 | 51 to 75 | 1 to 25 | 1 to 25 | 51 to 75 | 76 to 100 | –
